Converted amounts (≈) assume the structure as drawn.
Key:
Test in all cases: MIC by agar dilution method
Format in all cases: cell-based
[1] = test system: Providencia rettgeri NCTC 7475; conditions: NCTC7475, 22 hours at 37° C.
Procedure: (§1) The minimum inhibitory concentrations (MICs) of L-pyroglutamyl-L-1-aminoethyltetrazole (12) for 13 Gram-negative strains of bacteria and 8 Gram-positive strains of bacteria were determined using an agar dilution method described by Andrews J M. 2001 (“Determination of minimum inhibitory concentrations[…]; J. Antimicrob. Chemother. (2001) 48 Suppl. 1:5-16). Said method required the use of a defined antagonist-free medium (without peptone), prepared in the way previously described with the inclusion of 2% saponin-lysed horse blood, 25.0 μg/ml of NAD and 25.0 μg/ml of hemin (Atherton et al., 1979; “Phosphonopeptides as antibacterial agents: rationale, chemistry, and structure-activity relationships[…]; Antimicrob. Agents Chemother. (1979) 15:677-683). […] All the isolates were prepared at a density equivalent to […] in sterile deionized water using a densitometer (approximately 1.5×10^8 CFU/ml), then diluted to […]. A 1 μl aliquot of each diluted suspension was then placed on dishes with a multispot inoculator to give the recommended final inoculation of 10 000 CFU/spot (Andrews, 2001. “Determination of minimum inhibitory concentrations”; J. Antimicrob. Chemother. 48 Suppl 1:5-16). All the dishes (including the antimicrobial-free controls) were incubated for 22 hours at 37° C. All the tests were carried out on at least two independent replicates in order to examine the reproducibility.
(§2) The bacterial isolates tested all come from international collections, the American Type Culture Collection (ATCC) and the National Collection of Type Cultures (NCTC).

[2] = test system: Salmonella enteritidis NCTC 6676; conditions: Salmonella enterica, 22 hours at 37° C.
Procedure: as §1, §2

[3] = test system: Burkholderia cepacia ATCC 25416; conditions: ATCC25416, 22 hours at 37° C.
Procedure: as §1, §2

[4] = test system: Staphylococcus aureus (MSSA) NCTC 6571; conditions: 22 hours at 37° C.
Procedure: as §1, §2

[5] = test system: Staphylococcus aureus (MRSA) NCTC 11939; conditions: 22 hours at 37° C.
Procedure: as §1, §2

[6] = test system: Salmonella typhimurium NCTC 74; conditions: Salmonella enterica, 22 hours at 37° C.
Procedure: as §1, §2

[7] = test system: Escherichia coli NCTC 12241; conditions: NCTC12241, 22 hours at 37° C.
Procedure: as §1, §2

[8] = test system: Acinetobacter baumannii ATCC 19606; conditions: ATCC19606, 22 hours at 37° C.
Procedure: as §1, §2

[9] = test system: Salmonella enteritidis NCTC 74; conditions: Salmonella enterica, 22 hours at 37° C.
Procedure: as §1, §2

[10] = test system: Enterobacter cloacae NCTC 11936; conditions: NCTC11936, 22 hours at 37° C.
Procedure: as §1, §2

[11] = test system: Pseudomonas aeruginosa NCTC 10662; conditions: NCTC10662, 22 hours at 37° C.
Procedure: as §1, §2

[12] = test system: Enterococcus faecalis NCTC 775
Procedure: as §1, §2

[13] = test system: Enterococcus faecium NCTC 7171
Procedure: as §1, §2

[14] = test system: Listeria monocytogenes NCTC 11994; conditions: NCTC11994, 22 hours at 37° C.
Procedure: as §1, §2

[15] = test system: Streptococcus agalactiae NCTC 8181; conditions: NCTC8181, 22 hours at 37° C.
Procedure: as §1, §2

[16] = test system: Staphylococcus epidermidis NCTC 11047; conditions: NCTC11047, 22 hours at 37° C.
Procedure: as §1, §2

[17] = test system: Yersinia enterocolitica NCTC 11176
Procedure: as §1, §2

[18] = test system: Serratia marcescens NCTC 10211
Procedure: as §1, §2

[19] = test system: Klebsiella pneumoniae NCTC 9528
Procedure: as §1, §2

[20] = test system: Bacillus subtilis NCTC 9372
Procedure: as §1, §2

[21] = test system: Escherichia coli NCTC 10418; conditions: NCTC10418, 22 hours at 37° C.
Procedure: as §1, §2

[22] = at very low concentrations, of about 2 mg/l, enterococci

MIC [1]: > 128 µg/mL
MIC [2]: > 128 µg/mL
MIC [3]: > 128 µg/mL
MIC [4]: > 128 µg/mL
MIC [5]: > 128 µg/mL
MIC [6]: > 128 µg/mL
MIC [7]: > 128 µg/mL
MIC [8]: > 128 µg/mL
MIC [9]: > 128 µg/mL
MIC [10]: > 128 µg/mL
MIC [11]: > 128 µg/mL
MIC ([12]; NCTC775, Enterococcus faecalis NCTC 775, 22 hours at 37° C.): 2 µg/mL (≈ 8.92 µM)
MIC ([13]; NCTC7171, Enterococcus faecium NCTC 7171, 22 hours at 37° C.): 2 µg/mL (≈ 8.92 µM)
MIC [14]: > 128 µg/mL
MIC [15]: > 128 µg/mL
MIC [16]: > 128 µg/mL
MIC ([17]; NCTC11176, Yersinia enterocolitica NCTC 11176, 22 hours at 37° C.): 4 µg/mL (≈ 17.8 µM)
MIC ([18]; NCTC10211, Serratia marcescens NCTC 10211, 22 hours at 37° C.): 8 µg/mL (≈ 35.7 µM)
MIC ([19]; NCTC9528, Klebsiella pneumoniae NCTC 9528, 22 hours at 37° C.): 8 µg/mL (≈ 35.7 µM)
MIC ([20]; NCTC9372, Bacillus subtilis NCTC 9372, 22 hours at 37° C.): 64 µg/mL (≈ 285 µM)
MIC [21]: > 128 µg/mL
SMILES: C[C@H](NC(=O)[C@@H]1CCC(=O)N1)c1nnn[nH]1 [compound 12, L-pyroglutamyl-L-1-aminoethyltetrazole]
antibacterial activity (in words) ([12]; Enterococcus faecalis): highly inhibitory
inhibition specificity (in words) [12, 22]: excellent inhibition specificity for enterococci
antibacterial activity (in words) ([13]; Enterococcus faecium): highly inhibitory
inhibition specificity (in words) [13, 22]: excellent inhibition specificity for enterococci
Growth at various concentrations (mg/l) ([17]; 2 mg/l, Yersinia enterocolitica NCTC 11176): Tr.
antibacterial activity (in words) ([17]; Yersinia enterocolitica): highly inhibitory
antibacterial activity (in words) ([18]; Serratia marcescens): highly inhibitory
Growth at various concentrations (mg/l) ([19]; 4 mg/l, Klebsiella pneumoniae NCTC 9528): Tr.
antibacterial activity (in words) ([19]; Klebsiella pneumoniae): highly inhibitory
antibacterial activity (in words) ([20]; Bacillus subtilis): highly inhibitory
